Columns and labels:
hLPA3 = target: T1, hLPA3 (Homo sapiens, UniProt Q9UBY5); test: TGFα-shedding assay, LPA3; assay type: cell-based; conditions: 293A cells, AP-TGFα release; for EC50: 1 h; for Emax: read-out: Emax ± SEM hLPA3 (converted)
T1 construct: expressed in transfected cells; host or cells: 293A cells
T1 sequence (Q9UBY5 1-353): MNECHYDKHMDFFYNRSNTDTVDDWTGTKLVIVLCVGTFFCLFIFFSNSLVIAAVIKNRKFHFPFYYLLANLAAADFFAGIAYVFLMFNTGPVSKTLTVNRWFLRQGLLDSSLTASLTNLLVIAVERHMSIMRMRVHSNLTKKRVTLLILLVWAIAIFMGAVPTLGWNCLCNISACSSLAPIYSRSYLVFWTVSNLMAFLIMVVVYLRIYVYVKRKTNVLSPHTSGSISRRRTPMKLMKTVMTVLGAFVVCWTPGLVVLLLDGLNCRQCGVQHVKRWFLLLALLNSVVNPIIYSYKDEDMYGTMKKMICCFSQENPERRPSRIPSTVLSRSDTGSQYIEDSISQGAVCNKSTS
Protocol: (§1) 293A cells expressing LPA receptors were stimulated with the indicated concentration of LPA, 2carbaLPA, and cPA analogues. Receptor-specific alkaline phosphatase-tagged transforming growth factor-α release was calculated by subtracting the responses in the empty vector-transfected cells from those in the receptor-expressing cells. Data are represented as standard error of the mean of three independent replicates.
(§2) 293A cells (Life Technologies, Tokyo, Japan) were cultured in DMEM (Nissui Pharmaceutical, Tokyo, Japan) supplemented with 10% foetal calf serum (Gibco, Waltham, MA, USA) in an incubator at 37 °C and 5% CO2. This assay was conducted according to a modified version of a method described previously. […] The cells were co-transfected with vectors-expressing human LPA1–6, alkaline phosphatase-tagged TGFα (AP-TGFα). As negative controls, cells transfected with an empty vector instead of the receptor-expressing vector were used. After 24 h, the cells were resuspended in Hank’s balanced salt solution (HBSS), seeded in 96-well plates, and stimulated with cPA analogues administered at tenfold concentration of the final concentration. The cPA analogues were diluted with HBSS, 0.01% protease and fatty acid-free BSA (SERVA Electrophoresis GmbH, Heidelberg, Germany). Cells for LPA4, LPA5, and LPA6 analysis were treated with Ki16425 (final concentration: 10 μM), 5 min before treatment with the cPA analogues. After incubation for 1 h at 37 °C, 80 µL of the supernatant was transferred to fresh 96-well plates. An equal volume of 1 mM p-NPP solution [120 mM Tris–HCl (pH 9.5), 40 mM NaCl, and 10 mM MgCl2] was added to both the supernatant and the cells. Alkaline phosphatase activity was calculated by measuring absorbance at 405 nm using the Cytation 3 plate reader (BioTek, Winooski, VT, USA).

human recombinant ATX = target: T2, human recombinant ATX (Homo sapiens, UniProt Q13822); test: Choline oxidase assay of LPC cleavage by ATX; assay type: biochemical; conditions: LPC 16:0 300 µM, ATX 50 nM, 2 h, 37 °C, various concentrations
T2 construct: purchased Cayman Chemical
Protocol: (a) Concentration–response curves for the inhibition of ATX activity as measured by the […] of the substrate lysophosphatidylcholine (LPC) using choline oxidase and peroxidase. LPC 16:0 (final concentration: 300 µM, above its critical micellar concentration [CMC]), human recombinant ATX (final concentration: 50 nM), and various concentrations of cPA analogues were used for incubation with 4-aminoantipyrine, TOOS (final concentration: 0.05% (w/v) each), choline oxidase and peroxidase (final concentration: 10 U/mL each) in the ATX assay buffer. […] Inhibition was calculated as percentage (%) of reduction in absorbance compared with absorbance in the vehicle control (without cPA analogues) after subtraction of the value measured at time 0. Data are represented as mean ± standard deviation (n = 3–4 samples). (b) Inhibition of ATX activity measured by lysophosphatidic acid (LPA 16:0) production via liquid chromatography coupled to triple quadrupole mass spectrometry (LC-QqQ). The substrate LPC 16:0 (final concentration: 300 µM) was incubated with human recombinant ATX (final concentration: 50 nM) and cPA analogues (final concentration: 10 μM) for 2 h at 37 °C. The ATX product, LPA 16:0, was quantified by LC-QqQ. Inhibition was calculated as percentage (%) of reduction in LPA production compared with LPA production in the vehicle control (without cPA analogues). Data are represented as mean ± standard deviation (n = 5–6 samples).
Human recombinant ATX (50 nM final concentration, 5 µL in ATX assay buffer: 50 mM Tris, 140 mM NaCl, 5 mM KCl, 1 mM CaCl2, 1 mM MgCl2, pH 8.0) and cPA analogues (5 µL each in ATX assay buffer) at various concentrations were added in a 96-well plate and mixed with 90 µL of LPC 16:0 (final concentration: 300 µM) as substrate, 4-aminoantipyrine, TOOS (final concentration: 0.05% w/v each), choline oxidase and peroxidase (final concentration: 10 units/mL each) in ATX assay buffer. […] Inhibition was calculated as a percentage (%) of reduction in absorbance compared to absorbance in the vehicle control (without cPA analogues) after subtraction of the value measured at time 0.

hLPA5 = target: T3, hLPA5 (Homo sapiens, UniProt Q9H1C0); test: TGFα-shedding assay, LPA5; assay type: cell-based; conditions: 293A cells, AP-TGFα release; for EC50: 1 h, with Ki16425 10 μM; for Emax: read-out: Emax ± SEM hLPA5 (converted)
T3 construct: expressed in transfected cells; host or cells: 293A cells
T3 sequence (Q9H1C0 whole entry): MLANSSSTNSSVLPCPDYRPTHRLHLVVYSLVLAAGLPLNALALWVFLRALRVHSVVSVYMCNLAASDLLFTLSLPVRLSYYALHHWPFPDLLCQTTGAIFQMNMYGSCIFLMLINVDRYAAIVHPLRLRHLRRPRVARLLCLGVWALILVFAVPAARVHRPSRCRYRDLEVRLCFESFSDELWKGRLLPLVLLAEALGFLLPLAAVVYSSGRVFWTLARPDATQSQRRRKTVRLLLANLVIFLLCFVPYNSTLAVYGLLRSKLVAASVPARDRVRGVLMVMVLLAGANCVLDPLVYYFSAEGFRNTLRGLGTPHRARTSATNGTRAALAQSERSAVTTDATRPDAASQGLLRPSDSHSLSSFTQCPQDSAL
Protocol: as §1, §2

[1] = cPA analogue stability in the 293A cell medium; assay type: in vitro ADME; conditions: 10 µM, 37 °C, 293A (HEK) cell medium
Protocol: Supplementary Figure S3. Cyclic phosphatidic acid (cPA) analogue stability in the HEK cell medium. Each cPA analogue (final concentration: 10 µM) was incubated with the HEK cell medium for 1 h at 37 °C. The remaining cPA analogue was quantified using liquid chromatography with tandem mass spectrometry (LC-QqQ) and calculated based on the percentage (%) ratio of the final concentration after incubation to the initial concentration. Data are represented as mean ± standard deviation (n = 3 samples).
293A cells were prepared in Hank’s balanced salt solution (HBSS) in 96-well plates. […] After incubation for 1 h at 37 ℃, 80 µL of the supernatant was collected and mixed with 320 µL of acidic methanol, including LPA 17:0 and cPA 17:0 (final concentration: 0.2 µM each; Avanti Polar Lipids, Alabaster, AL, USA).

LPA4 = conditions: Ca2+ mobilization, RH7777 and CHO cells, less than 2 min incubation ref 17; cited from earlier work

Structure (SMILES): CCCCCCCC/C=C\CCCCCCCC(=O)OCC(CO)CP(=O)(O)O (centres unmarked) [2carbaLPA 18:1, 2-carba-lysophosphatidic acid]
- EC50 (hLPA3): 11.6 nM
- Emax (hLPA3): 42.7%
- Inhibition of lysoPLD activity of ATX (choline oxidase assay) (human recombinant ATX): inhibited the lysoPLD activity of ATX in a dose-dependent manner
- EC50 (hLPA5): 50.2 nM
- Emax (hLPA5): 38.3%

Structure (SMILES): CCCCCCCC/C=C\CCCCCCCC(=O)OCC1COP(=O)(O)C1 (centres unmarked) [2ccPA 18:1, 2-carba-cyclic phosphatidic acid]
- EC50 (hLPA3): 286 nM
- Emax (hLPA3): 30.8%
- Inhibition of lysoPLD activity of ATX (choline oxidase assay) (human recombinant ATX): inhibited the lysoPLD activity of ATX in a dose-dependent manner
- EC50 (hLPA5): 973 nM
- Emax (hLPA5): 31.7%

Structure (SMILES): CCCCCCCC/C=C\CCCCCCCC(=O)OC[C@@H](O)CCP(=O)(O)O [3carba LPA 18:1, 3-carba-lysophosphatidic acid]
- EC50 (hLPA3): 5.6 nM
- Emax (hLPA3): 44.3%
- Stability during 1 h [1]: mostly stable
- Inhibition of lysoPLD activity of ATX (choline oxidase assay) (human recombinant ATX): inhibited the lysoPLD activity of ATX in a dose-dependent manner
- Activity relative to LPA (times weaker), LPA4 (LPA4): more than 10 times
- EC50 (hLPA5): 89.3 nM
- Emax (hLPA5): 35.5%

Structure (SMILES): CCCCCCCC/C=C\CCCCCCCC(=O)OC[C@@H]1CCP(=O)(O)O1 [3ccPA 18:1, 3-carba-cyclic phosphatidic acid]
- Emax (hLPA3): 37.4%
- Inhibition of lysoPLD activity of ATX (choline oxidase assay) (human recombinant ATX): lower inhibitory activity than the other analogues, except for LPA and cPA
- EC50 (hLPA5): 2230 nM
- Emax (hLPA5): 51.2%

Structure (SMILES): CCCCCCCC/C=C\CCCCCCCC(=O)OC[C@@H]1COP(=O)(O)O1 [cPA 18:1, 1-Oleoyl-cPA]
- EC50 (hLPA3): 439 nM
- Emax (hLPA3): 16.8%
- Inhibition of lysoPLD activity of ATX (choline oxidase assay) (human recombinant ATX): significantly lower inhibitory activity
- EC50 (hLPA5): 354 nM
- Emax (hLPA5): 35.6%
